Source: US7037656B2, “Methods and compositions for identifying ligands for nuclear receptors” (priority 2000, dated 2006)

Experiments:
Assay in all cases: Yeast 6x EcRE-lacZ β-galactosidase transactivation assay
[1] = molecular target: T1, Aa ΔA/B EcR + Cf ΔA/B USP + GRIP1 (Aedes aegypti, UniProt P49880); type: cell-based, Aedes aegypti; Choristoneura fumiferana; conditions: RH 5992 10 μM, 4 hours, DMSO control 0.250
T1 construct: ubiquitin (human, 76 aa) (N, cleaved yes); expressed in transfected cells
Description: Briefly, yeast cells are cultured in 5 mL of YPD liquid medium overnight at 30° C. The cell culture was diluted 1:20 in YPD media and further grown until cell density reached an O.D of 0.6. at OD600. The cells were pelleted by centrifugation and washed with 10 mL of TE+0.1M lithium acetate. Cells are then resuspended in 10 mL TE+0.1M lithium acetate and incubated at 30° C. for 1 hour. Cells are collected and resuspended in 0.5 mL of TE+ 0.1M lithium acetate. Aliquots of cells (50 μL), were incubated for 15 minutes at 30° C. with 1–2 μg plasmid DNA in the presence of 5 μg of denatured salmon sperm DNA as DNA carrier. In the case of co-transformation, the indicated plasmids were added simultaneously. […]
(§1) Using the transformation method described above, yeast were co-transformed with a reporter gene as shown in FIG. 2 and the expression vector encoding the full-length Aedes aegypti ecdysone receptor, Aa EcR (FIG. 7A) in the presence or absence of the Aa EcR heterodimer partner, Aa USP (a or b form, FIGS. 8A and 8B respectively). […] As the N-terminal portion of the AaEcR receptor is reported to play a role in ligand independent transactivation, an expression vector containing an N-terminal deletion in the Aa EcR was constructed (see FIG. 7B) and assessed in the β-galactosidase assays described above. […]

[2] = molecular target: T2, Aa ΔA/B EcR + RXRγ + GRIP1 (Aedes aegypti, UniProt P49880); type: cell-based, Aedes aegypti; mouse; conditions: RH 5992 10 μM, 4 hours, DMSO control 0.496
T2 construct: ubiquitin (human, 76 aa) (N, cleaved yes); expressed in transfected cells
Description: (§2) The human RXR α (Genbank accession number X52773), mouse RXR β (Genbank accession number X66224) or mouse RXR γ (Genebank accession number X66225) subtypes were expressed in yeast-E. coli multicopy 2μ expression plasmids under regulation of CUP1 promoter with the LEU2 selective marker (1).
(§3) Briefly, yeast cells are cultured in 5 mL of YPD liquid medium overnight at 30° C. The cell culture was diluted 1:20 in YPD media and further grown until cell density reached an O.D of 0.6. at OD600. The cells were pelleted by centrifugation and washed with 10 mL of TE+0.1M lithium acetate. Cells are then resuspended in 10 mL TE+0.1M lithium acetate and incubated at 30° C. for 1 hour. Cells are collected and resuspended in 0.5 mL of TE+ 0.1M lithium acetate. […]
as §1

[3] = test system: Aa ΔA/B EcR + RXRβ + GRIP1; type: cell-based, Aedes aegypti; mouse; conditions: RH 5992 10 μM, 4 hours, DMSO control 0.231
Description: as §2, §3, §1

T2 sequence (P49880 with tags, fused parts or gaps): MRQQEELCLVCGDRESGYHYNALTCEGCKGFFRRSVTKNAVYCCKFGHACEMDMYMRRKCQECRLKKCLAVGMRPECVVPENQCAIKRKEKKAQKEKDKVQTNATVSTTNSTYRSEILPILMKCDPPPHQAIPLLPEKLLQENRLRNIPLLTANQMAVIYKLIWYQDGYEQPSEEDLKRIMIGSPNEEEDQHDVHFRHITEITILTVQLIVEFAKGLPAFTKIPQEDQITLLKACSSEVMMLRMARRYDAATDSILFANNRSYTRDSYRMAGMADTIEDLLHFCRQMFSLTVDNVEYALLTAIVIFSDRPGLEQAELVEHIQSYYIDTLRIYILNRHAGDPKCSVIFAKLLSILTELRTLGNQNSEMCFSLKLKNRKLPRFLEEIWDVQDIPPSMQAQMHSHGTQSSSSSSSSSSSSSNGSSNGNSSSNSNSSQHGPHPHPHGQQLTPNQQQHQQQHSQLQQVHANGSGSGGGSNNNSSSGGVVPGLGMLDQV
T2 sequence (P28705 whole entry partner): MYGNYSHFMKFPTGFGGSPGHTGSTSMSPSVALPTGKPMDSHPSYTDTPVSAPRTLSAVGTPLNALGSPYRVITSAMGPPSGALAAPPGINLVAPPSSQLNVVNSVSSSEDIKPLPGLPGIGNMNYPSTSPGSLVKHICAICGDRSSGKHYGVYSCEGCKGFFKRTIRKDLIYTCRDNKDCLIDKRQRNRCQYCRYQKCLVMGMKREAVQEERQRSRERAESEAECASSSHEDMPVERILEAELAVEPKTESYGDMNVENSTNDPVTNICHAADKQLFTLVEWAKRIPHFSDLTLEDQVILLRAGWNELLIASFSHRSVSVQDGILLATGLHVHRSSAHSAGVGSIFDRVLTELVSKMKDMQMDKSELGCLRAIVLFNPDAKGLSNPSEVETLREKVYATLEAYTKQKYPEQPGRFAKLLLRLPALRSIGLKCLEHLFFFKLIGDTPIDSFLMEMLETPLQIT
T1 sequence (P49880 with tags, fused parts or gaps): as the sequence (P49880 with tags, fused parts or gaps) above
T1 sequence (O76202 with tags, fused parts or gaps partner): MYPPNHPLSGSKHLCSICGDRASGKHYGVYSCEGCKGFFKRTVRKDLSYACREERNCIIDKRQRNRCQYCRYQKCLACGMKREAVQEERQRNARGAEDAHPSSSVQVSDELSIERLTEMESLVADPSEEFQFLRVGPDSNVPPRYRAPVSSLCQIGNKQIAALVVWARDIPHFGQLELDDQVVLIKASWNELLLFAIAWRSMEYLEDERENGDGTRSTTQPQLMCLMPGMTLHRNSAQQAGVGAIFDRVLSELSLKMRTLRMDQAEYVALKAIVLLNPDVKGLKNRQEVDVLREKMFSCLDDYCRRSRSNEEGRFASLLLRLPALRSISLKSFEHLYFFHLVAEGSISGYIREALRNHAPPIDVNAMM

CCc1ccc(C(=O)NN(C(=O)c2cc(C)cc(C)c2)C(C)(C)C)cc1 [RH 5992, tebufenozide] showed a β-galactosidase activity [1] of 3.000, a β-galactosidase activity [2] of 2.666 and a β-galactosidase activity [3] of 1.983.
